Tests used:
cPLA2 = target: T1, cPLA2 (Homo sapiens, UniProt P47712); assay: Coumarine Assay (hydrolysis of 7-hydroxycoumarinyl 6-heptenoate by cPLA2, fluorometric); assay type: biochemical; settings: 60 μM 7-hydroxycoumarinyl 6-heptenoate substrate, 4 μg cPLA2, pH 7.5; excitation 360 nm, emission 460 nm; read-out: Coumarin IC50
T1 sequence (P47712 1-749): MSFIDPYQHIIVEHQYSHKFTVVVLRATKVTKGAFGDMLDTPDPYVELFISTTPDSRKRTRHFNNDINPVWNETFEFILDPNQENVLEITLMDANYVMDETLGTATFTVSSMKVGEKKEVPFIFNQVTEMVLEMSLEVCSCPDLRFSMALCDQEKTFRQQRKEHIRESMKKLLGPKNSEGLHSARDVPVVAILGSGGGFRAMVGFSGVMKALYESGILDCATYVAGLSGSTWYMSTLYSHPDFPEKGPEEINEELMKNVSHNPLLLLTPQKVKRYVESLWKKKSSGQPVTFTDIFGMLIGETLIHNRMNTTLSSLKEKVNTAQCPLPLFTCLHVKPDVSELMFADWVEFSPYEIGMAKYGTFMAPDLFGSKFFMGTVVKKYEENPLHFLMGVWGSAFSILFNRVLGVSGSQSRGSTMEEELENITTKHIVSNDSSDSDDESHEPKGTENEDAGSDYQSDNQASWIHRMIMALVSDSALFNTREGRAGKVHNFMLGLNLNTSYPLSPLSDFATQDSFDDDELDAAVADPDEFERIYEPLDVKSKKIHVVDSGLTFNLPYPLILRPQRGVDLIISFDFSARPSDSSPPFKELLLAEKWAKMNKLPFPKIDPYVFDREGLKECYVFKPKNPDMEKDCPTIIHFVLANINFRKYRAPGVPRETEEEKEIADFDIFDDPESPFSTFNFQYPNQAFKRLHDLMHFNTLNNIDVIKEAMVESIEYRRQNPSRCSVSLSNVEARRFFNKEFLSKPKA
Procedure: Inhibitors were mixed with 200 μL assay buffer (80 mM Heped, pH 7.5, 1 mM EDTA) containing 60 μM 7-hydroxycoumarinyl 6-heptenoate. The reaction was initiated by adding 4 μg cPLA2 in 50 μL assay buffer. Hydrolysis of the 7-hydroxycounarimyl 6-heptenoate ester was monitored in a fluorometer by exciting at 360 nm and monitoring emission at 460 nm. Enzyme activity is proportional to the increase in emission at 460 nm per minute. In the presence of a cPLA2 inhibitor, the rate of increase is less.

Row | Molecule | IC50 (cPLA2) | melting point
1 | 4-[2-(1-benzhydryl-5-chloro-2-{2-[({2-[(3R,5S)-3,5-dimethylmorpholin4-yl]ethyl}sulfonyl)amino]ethyl}-1H-indol-3-yl)ethoxy]benzoic acid [Example 250] | 2100 nM | 
2 | 4-{2-[1-benzhydryl-5-chloro-2-(2-{[(2,6-dimethylbenzyl)sulfonyl]amino}ethyl)-1H-indol-3-yl]ethoxy}benzoic acid [Example 279] | 160 nM | 
3 | O=C(O)c1ccc(OCCc2c(CCNS(=O)(=O)c3cccc(F)c3)n(C(c3ccccc3)c3ccccc3)c3ccc(Cl)cc23)cc1 [Example 223] | 600 nM | 
4 | O=C(O)c1ccc(OCCc2c(CCNS(=O)(=O)c3c(F)cccc3F)n(C(c3ccccc3)c3ccccc3)c3ccc(Cl)cc23)cc1 [Example 225, 4-{2-[1-benzhydryl-5-chloro-2-(2-{[(2,6-fluorophenyl)sulfonyl]amino}ethyl)-1H-indol-3-yl]ethoxy}benzoic acid] | 400 nM | 
5 | O=C(O)c1cccc(OCCc2c(CCNS(=O)(=O)Cc3ccc(Cl)c(Cl)c3)n(C(c3ccccc3)c3ccccc3)c3ccc(Cl)cc23)c1 [Example 284, 3-(2-(1-benzhydryl-5-chloro-2-(2-((3,4-dichlorophenyl)methylsulfonamido)ethyl)-1H-indol-3-yl)ethoxy) benzoic acid] | 400 nM | 
6 | O=C(O)c1ccc(OCCc2c(CCNS(=O)(=O)Cc3ccc(Cl)c(Cl)c3)n(C(c3ccccc3)c3ccccc3)c3ccc(Cl)cc23)cc1F [Example 296, 4-{2-[1-benzhydryl-5-chloro-2-(2-{[(3,4-dichlorobenzyl)sulfonyl]amino}ethyl)-1H-indol-3-yl]ethoxy}-2-fluorobenzoic acid] |  | 117 to 119 °C
7 | O=C(O)c1ccc(OCCc2c(CCNS(=O)(=O)Cc3ccccc3Cl)n(C(c3ccccc3)c3ccccc3)c3ccc(Cl)cc23)cc1F [Example 297, 4-{2-[1-benzhydryl-5-chloro-2-(2-{[(2-chlorobenzyl)sulfonyl]amino}ethyl)-1H-indol-3-yl]ethoxy}-2-fluorobenzoic acid] |  | 132 to 135 °C
8 | CC(C)(Cc1ccc(S(=O)(=O)CCc2c(CCNS(=O)(=O)Cc3ccc(Cl)c(Cl)c3)n(C(c3ccccc3)c3ccccc3)c3ccc(Cl)cc23)cc1)C(=O)O [Example 298, 3-[4-({2-[1-benzhydryl-5-chloro-2-(2-{[(3,4-dichlorobenzyl)sulfonyl]amino}ethyl)-1H-indol-3-yl]ethyl}sulfonyl)phenyl]-2,2-dimethylpropanoic acid] |  | 207 to 208 °C
